Experimental data as given in US5175183A, “Lipoxygenase inhibiting compounds” (Abbott Laboratories, priority 1991, dated 1992).

Key:
5-lipoxygenase = biological target: T1, 5-lipoxygenase (Rattus norvegicus, UniProt P12527); assay: In Vitro 5-lipoxygenase Inhibitory Activity (20,000×g supernatant from homogenized RBL-1 cells); assay type: biochemical; settings: read-out: IC50 (concentration of compound producing 50% enzyme inhibition)
T1 construct: 20,000×g supernatant from homogenized RBL-1 cells; endogenous in cells; host or cells: RBL-1 cells (20,000×g supernatant of homogenate)
T1 sequence (P12527 1-673): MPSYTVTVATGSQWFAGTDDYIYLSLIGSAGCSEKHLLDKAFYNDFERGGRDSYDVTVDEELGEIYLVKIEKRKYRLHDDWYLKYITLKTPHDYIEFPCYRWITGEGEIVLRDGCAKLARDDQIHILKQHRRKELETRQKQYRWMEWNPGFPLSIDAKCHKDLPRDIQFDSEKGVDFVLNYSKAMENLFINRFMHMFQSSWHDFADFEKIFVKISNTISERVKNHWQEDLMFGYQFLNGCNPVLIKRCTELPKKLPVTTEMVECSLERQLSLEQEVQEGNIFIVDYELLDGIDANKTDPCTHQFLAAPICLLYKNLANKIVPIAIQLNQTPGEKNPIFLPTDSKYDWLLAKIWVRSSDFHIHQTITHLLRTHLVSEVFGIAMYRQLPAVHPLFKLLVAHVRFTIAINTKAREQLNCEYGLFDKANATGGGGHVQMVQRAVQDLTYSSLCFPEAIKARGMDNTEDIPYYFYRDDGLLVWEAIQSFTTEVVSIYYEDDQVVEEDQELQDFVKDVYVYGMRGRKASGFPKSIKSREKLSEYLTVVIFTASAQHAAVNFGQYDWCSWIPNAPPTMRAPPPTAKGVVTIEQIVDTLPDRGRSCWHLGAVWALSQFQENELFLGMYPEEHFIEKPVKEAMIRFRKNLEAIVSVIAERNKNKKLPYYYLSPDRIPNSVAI
Experimental: The compounds of this invention are potent inhibitors of 5-lipoxygenase. Their activity was determined using the 20,000×g supernatant from homogenized RBL-1 cells in a similar manner as that described by Dyer and coworkers (Dyer, R. D.; Haviv, F.; Hanel, A. M.; Bornemier, D. A.; Carter, G. W. Fed. Proc., Fed. Am. Soc. Exp. Biol. 1984, 43, 1462A). IC50 values (concentration of compound producing 50% enzyme inhibition) were calculated by linear regression analysius of percentage inhibition versus log inhibitor concentration plots.

Leukotriene Biosynthesis = assay: In Vivo Inhibition of Leukotriene Biosynthesis (rat peritoneal anaphylaxis model); settings: oral gavage 200 μmol/kg one hour prior to antigen challenge, peritoneal fluid leukotrienes 15 minutes after challenge, vs mean of control group
Experimental: Inhibition of the biosynthesis of leukotrienes in vivo after oral administration of compound was determined using a rat peritoneal anaphylaxis model. In this model rats were injected intraperitoneally (ip) with rabbit antibody to bovine serum albumin (BSA) and three hours later injected ip with BSA to induce an antigen-antibody response. Rats were sacrificed 15 minutes after this challenge and the peritoneal fluids were collected and analyzed for leukotriene levels. Test compound was administered by oral gavage one hour prior to the antigen challenge. Percent inhibition values were determined by comparing the treatment group to the mean of the control group.

| Molecule | IC50 (5-lipoxygenase) [µM] | Percent Inhibition With 200 μmol/kg oral dose (Leukotriene Biosynthesis) [%] |
| --- | --- | --- |
| CN(O)C(=O)NCc1ccsc1 [Example 8, N'-hydroxy-N'-methyl-N-[(thienyl-3-yl)methyl]urea] | 4 | 92 |
| CC(NC(=O)NO)c1cc2ccccc2o1 (stereo not shown) [Example 7, N'-hydroxy-N-[(1-benzofuran-2-yl)ethyl]urea] | 12.7 | – |
| Cc1cc(C(C)NC(=O)NO)c(C)s1 (stereo not shown) [Example 9, N'-hydroxy-N-[1-(2,5-dimethylthien-3-yl)ethyl]urea] | 8.4 | – |
| CN(O)C(=O)NCc1cccs1 [Example 6, N'-hydroxy-N'-methyl-N-[(thien-2-yl)methyl]urea] | 3.6 | 67 |
| CC(NC(=O)NO)c1ccc(OCc2ccccc2)cc1 (stereo not shown) [Example 1, N'-hydroxy-N-[1-(phenylmethoxyphenyl)ethyl]urea] | 1.2 | – |
| CCCCOc1ccc(C(C)NC(=O)NO)cc1 (stereo not shown) [Example 3, N'-hydroxy-N-[1-(4-butoxyphenyl)ethyl]urea] | 3.8 | – |
| O=C(NO)N[C@@H]1C[C@H]1c1ccccc1 (relative stereo) [Example 11, N'-hydroxy-N-1-(trans-2-phenylcyclopropyl)urea] | 28 | – |
| CC(NC(=O)N(C)O)c1ccc(OCc2ccccc2)cc1 (stereo not shown) [Example 2, N'-hydroxy-N'-methyl-N-[1-(4-phenylmethoxyphenyl)ethyl]urea] | 0.3 | 86 |
| N'-hydroxy-N'methoxy-N-[(1-naphth-2-yl)ethyl]urea [Example 5] | 27 | – |
| CC(NC(=O)NO)c1ccc2ccccc2c1 (stereo not shown) [Example 4, N'-hydroxy-N-[(1-naphth-2-yl)ethyl]urea] | 4.6 | – |
| O=C(NCc1ccsc1)N(O)CCO [Example 12, N'-hydroxy-N'-(2-hydroxyethyl)-N-[(thien-3-yl)-methyl]urea] | 13 | 79 |
| CC(NC(=O)N(C)O)c1cc2ccccc2o1 (stereo not shown) [Example 10, N'-hydroxy-N'-methyl-N-[(1-benzofur-2-yl)-ethyl]urea] | 0.27 | 50 |
| Cc1cc(C(C)NC(=O)N(C)O)c(C)s1 (stereo not shown) [Example 13, N'-hydroxy-N'-methyl-N-[1-(2,5-dimethylthien 3-yl)ethyl]urea] | 0.5 | 49 |
